PMC9917443 (eLife, 2023)

Tests used:
[1] = tested on: mGlu5 receptors; experiment: Ca^2+ mobilization assay (Calcium 6) in HEK293T cells expressing mGlu5; format: cell-based; details: 1 and 10 µM
[2] = target: T1, GB1a/2 receptors (Homo sapiens, UniProt O75899+Q9UBS5); experiment: SRE-luciferase accumulation assay (Gαqi/PLC) in HEK293T-Gαqi cells; details: constitutive and GABA-induced FLuc activity
[3] = target: T1, GB1a/2 receptors; experiment: BRET assay of G protein activation (Gαo-RLuc / Venus-Gγ2) in HEK293T cells; format: cell-based; design: Flag (N); expressed in transfected cells; host or cells: HEK293T cells stably expressing chimeric Gαqi; details: GABA or CGP54626, 10 μM
Method: We directly tested whether APP17 influences G protein activation by GBRs in transfected HEK293T cells. […] HEK293T cells were transiently transfected with Flag-GB1a, Flag-GB2, Gαo-RLuc, Gβ2, and Venus-Gγ2 plasmids with or without APP695. In order to ensure APP695 binding to GB1a/2 in trans a pool of HEK293T cells expressing APP695 was mixed with a pool of HEK293T cells expressing Flag-GB1a, Flag-GB2, Gαo-RLuc, Gβ2, and Venus-Gγ2. Transfected cells were seeded into 96-well microplates (Greiner Bio-One) at 100,000 cells/well. After 18 hr, cells were washed and coelenterazine h (5 µM, NanoLight Technologies, Prolume Ltd., Pinetop-Lakeside, AZ, USA) added for 5 min. […] BRET ratios were adjusted by subtracting the ratios obtained when RLuc fusion proteins were expressed alone. Each data point represents a technical quadruplicate.

[4] = target: T1, GB1a/2 receptors; experiment: PKA luminescence assay (R-RLuc-N / C-RLuc-C) of Gαi signaling in HEK293T cells; details: GABA 10 μM or CGP54626 10 μM; forskolin

T1 sequence (Q9UBS5 15-961 limits assumed): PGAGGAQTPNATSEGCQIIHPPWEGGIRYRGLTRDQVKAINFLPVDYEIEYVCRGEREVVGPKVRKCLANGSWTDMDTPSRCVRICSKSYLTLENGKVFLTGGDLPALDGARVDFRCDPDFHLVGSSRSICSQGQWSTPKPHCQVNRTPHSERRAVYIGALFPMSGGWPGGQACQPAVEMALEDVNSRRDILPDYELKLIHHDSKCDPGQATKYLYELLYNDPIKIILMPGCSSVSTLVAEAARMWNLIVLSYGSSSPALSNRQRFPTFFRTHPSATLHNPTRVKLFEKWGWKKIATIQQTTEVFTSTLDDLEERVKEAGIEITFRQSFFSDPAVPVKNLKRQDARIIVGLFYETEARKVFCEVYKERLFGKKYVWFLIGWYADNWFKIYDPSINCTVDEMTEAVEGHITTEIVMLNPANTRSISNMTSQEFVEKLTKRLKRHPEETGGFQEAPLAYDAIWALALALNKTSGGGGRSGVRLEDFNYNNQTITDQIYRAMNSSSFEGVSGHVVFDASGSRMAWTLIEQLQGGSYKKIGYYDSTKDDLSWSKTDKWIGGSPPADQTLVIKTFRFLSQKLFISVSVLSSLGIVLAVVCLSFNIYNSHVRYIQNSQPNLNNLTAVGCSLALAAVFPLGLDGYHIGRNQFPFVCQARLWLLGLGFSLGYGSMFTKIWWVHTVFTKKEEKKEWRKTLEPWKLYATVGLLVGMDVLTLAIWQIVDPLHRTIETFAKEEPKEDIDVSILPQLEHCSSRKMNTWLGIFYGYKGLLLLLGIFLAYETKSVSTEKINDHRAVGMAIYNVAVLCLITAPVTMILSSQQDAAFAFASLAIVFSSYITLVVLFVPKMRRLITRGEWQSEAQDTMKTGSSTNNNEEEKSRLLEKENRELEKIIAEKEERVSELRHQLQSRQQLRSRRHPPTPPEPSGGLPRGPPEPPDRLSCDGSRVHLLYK
T1 sequence (O75899 42-941 partner): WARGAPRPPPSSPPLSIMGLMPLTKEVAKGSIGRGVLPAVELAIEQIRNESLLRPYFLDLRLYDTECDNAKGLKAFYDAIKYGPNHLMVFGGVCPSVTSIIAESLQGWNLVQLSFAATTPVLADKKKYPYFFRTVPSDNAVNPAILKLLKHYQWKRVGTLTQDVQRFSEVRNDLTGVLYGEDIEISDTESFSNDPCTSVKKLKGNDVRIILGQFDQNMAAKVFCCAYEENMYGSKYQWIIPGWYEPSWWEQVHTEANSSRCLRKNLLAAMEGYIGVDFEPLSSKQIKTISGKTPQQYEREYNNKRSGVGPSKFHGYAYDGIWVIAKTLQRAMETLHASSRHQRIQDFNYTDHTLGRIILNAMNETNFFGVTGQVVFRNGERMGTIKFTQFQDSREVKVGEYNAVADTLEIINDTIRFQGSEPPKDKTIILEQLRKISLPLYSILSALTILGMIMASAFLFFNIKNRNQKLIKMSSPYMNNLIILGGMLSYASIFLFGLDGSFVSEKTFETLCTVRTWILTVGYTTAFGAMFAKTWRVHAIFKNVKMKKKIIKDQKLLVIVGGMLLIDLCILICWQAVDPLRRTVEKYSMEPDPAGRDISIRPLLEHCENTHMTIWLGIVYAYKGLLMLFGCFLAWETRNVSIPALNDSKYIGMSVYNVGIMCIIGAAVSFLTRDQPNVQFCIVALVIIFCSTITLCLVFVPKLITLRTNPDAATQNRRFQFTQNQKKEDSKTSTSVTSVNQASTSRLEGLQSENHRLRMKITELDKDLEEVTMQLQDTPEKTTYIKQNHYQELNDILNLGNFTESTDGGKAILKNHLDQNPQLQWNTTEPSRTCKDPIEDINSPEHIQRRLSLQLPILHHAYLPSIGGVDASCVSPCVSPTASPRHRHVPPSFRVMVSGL

BRET change by receptor ligand (in words) [3]	luminescence change by receptor ligand (in words) [4]	Structure (SMILES)	intracellular Ca^2+ mobilization (in words) [1]	block of receptor activity (in words) [2]
		N[C@H](C(=O)O)c1cc(O)cc(O)c1 [DHPG]	concentration-dependent increase in intracellular Ca^2+	
increased BRET above baseline	decreased luminescence below baseline	C[C@H](NC[C@H](O)CP(=O)(O)CC1CCCCC1)c1ccc(Cl)c(Cl)c1 [CGP54626]		blocked constitutive and GABA-induced receptor activity
